Measured values: patent US9555029B2 (HIKMA PHARMACEUTICALS, priority 2013, dated 2017)
Where two headings read alike, the source gives them in different places.

Tests used:
[1] = Treatment-2: colchicine 0.6 mg (day 19) + ritonavir 100 mg twice daily (days 15-19), cited from earlier work
[2] = cited from earlier work; for Kel / T1/2el: arithmetic mean; for AUCT / Cmax: geometric mean
[3] = Colchicine pharmacokinetics coadministered with voriconazole
[4] = clinical; settings: human, plasma, oral
[5] = remark: listed apart in the source
Procedure: Safety was evaluated through assessment of adverse events, standard laboratory evaluations, physical examination (including vital signs) and ECG. Safety was determined by descriptive statistics.
The inhibitor dosage form was an oral 200 mg tablet of Diflucan® (fluconazole, from Pfizer).
The fluconazole trial differed from the Example 2 protocol as follows.

[6] = Treatment-1: colchicine 0.6 mg alone (day 1, fasted), azithromycin study
[7] = Treatment-2: colchicine 0.6 mg (day 19) + azithromycin 500 mg day 15, 250 mg once daily days 16-19
[8] = of 12 subjects, colchicine + propafenone
[9] = of 12 subjects, propafenone study
[10] = Treatment-1 (day 1): colchicine 0.6 mg alone, fasted, voriconazole study, mean
[11] = Treatment-2 (day 9): colchicine 0.6 mg + voriconazole 200 mg after twice daily days 4-8, fasted, mean
[12] = of 12 subjects, colchicine + fluconazole
[13] = of 12 subjects, fluconazole study

COc1cc2c(c(OC)c1OC)-c1ccc(OC)c(=O)cc1[C@@H](NC(C)=O)CC2 [Colchicine, (S)N-(5,6,7,9-tetrahydro-1,2,3,10-tetramethoxy-9-oxobenzo[alpha]heptalen-7-yl)acetamide]
T1/2el ([1]; arithmetic mean): 17.41 h
CLTOT/F [1]: 18.59 L/h
AUCT ([1]; geometric mean): 29,050 pg · h/mL
Cmax ([1]; geometric mean): 4,990 pg/mL
Kel [2, 6]: 0.147 h⁻¹
T1/2el [2, 6]: 6.07 h
CLTOT/F [2, 6]: 50.24 L/h
AUCT [2, 6]: 11,980 pg · h/mL
Cmax [2, 6]: 2,740 pg/mL
Kel [2, 7]: 0.1426 h⁻¹
T1/2el [2, 7]: 6.71 h
CLTOT/F [2, 7]: 35.01 L/h
AUCT [2, 7]: 17,160 pg · h/mL
Cmax [2, 7]: 3,050 pg/mL
Total number of adverse events after Treatment-2 (colchicine + propafenone): 1
Number of subjects experiencing adverse events after Treatment-2 [8]: 1
Percent of subjects experiencing adverse events after Treatment-2 [8]: 8.3%
Number of subjects experiencing adverse events after Treatment-1 [9]: 9
Percent of subjects experiencing adverse events after Treatment-1 [9]: 75.0%
Number of adverse events requiring medication after Treatment-1 (propafenone study): None
Number of serious adverse events or deaths (propafenone study): None
Total number of adverse events after Treatment-1 (propafenone study): 19
AUCT/∞ [3, 10]: 87.75%
Kel [3, 10]: 0.0240 h⁻¹
T1/2el [3, 10]: 29.63 h
AUCT/∞ [3, 11]: 86.14%
Kel [3, 11]: 0.0227 h⁻¹
T1/2el [3, 11]: 31.30 h
Decrease of colchicine Cmax ([3]; coadministration with voriconazole vs colchicine alone): about 20%
CL/F ([3]; male, human, in vivo, 0.6 mg): 550 mL/min
Tmax ([3]; male, human, in vivo, 0.6 mg): 1.38 h
Vd/F ([3]; male, human, in vivo, 0.6 mg): 1350 L
AUC(0-t) ([3]; male, human, in vivo, 0.6 mg, AUCT GEOMETRIC LSMEANS, Treatment-1: colchicine 0.6 mg alone, voriconazole study): 17.9 ng·h/mL
AUC(0-t) ([3]; male, human, in vivo, 0.6 mg, AUCT, Treatment-1 (day 1): colchicine 0.6 mg alone, fasted, voriconazole study, mean): 19.6 ng·h/mL
AUC(0-inf) ([3]; male, human, in vivo, 0.6 mg, AUC∞ GEOMETRIC LSMEANS, Treatment-1: colchicine 0.6 mg alone, voriconazole study): 20.5 ng·h/mL
AUC(0-inf) ([3]; male, human, in vivo, 0.6 mg, AUC∞, Treatment-1 (day 1): colchicine 0.6 mg alone, fasted, voriconazole study, mean): 22.4 ng·h/mL
Cmax ([3]; male, human, in vivo, 0.6 mg, Cmax GEOMETRIC LSMEANS, Treatment-1: colchicine 0.6 mg alone, voriconazole study): 2.3 ng/mL
Cmax ([3]; male, human, in vivo, 0.6 mg, Cmax, Treatment-1 (day 1): colchicine 0.6 mg alone, fasted, voriconazole study, mean): 2.66 ng/mL
AUC(0-t) ([3]; male, human, in vivo, AUCT GEOMETRIC LSMEANS, Treatment-2: colchicine 0.6 mg + voriconazole): 19.5 ng·h/mL
AUC(0-t) ([3]; male, human, in vivo, AUCT, Treatment-2 (day 9): colchicine 0.6 mg + voriconazole 200 mg after twice daily days 4-8, fasted, mean): 20.7 ng·h/mL
AUC(0-inf) ([3]; male, human, in vivo, AUC∞ GEOMETRIC LSMEANS, Treatment-2: colchicine 0.6 mg + voriconazole): 22.7 ng·h/mL
AUC(0-inf) ([3]; male, human, in vivo, AUC∞, Treatment-2 (day 9): colchicine 0.6 mg + voriconazole 200 mg after twice daily days 4-8, fasted, mean): 24.1 ng·h/mL
Cmax ([3]; male, human, in vivo, Cmax GEOMETRIC LSMEANS, Treatment-2: colchicine 0.6 mg + voriconazole): 1.83 ng/mL
Cmax ([3]; male, human, in vivo, Cmax, Treatment-2 (day 9): colchicine 0.6 mg + voriconazole 200 mg after twice daily days 4-8, fasted, mean): 2.06 ng/mL
AUC(0-t) ([4]; both, AUCT, Treatment-2 (day 9): colchicine 0.6 mg + cimetidine 800 mg after double dose day 4, once daily days 5-8, fasted, mean): 18.1 ng·h/mL
CL/F ([4]; 0.6 mg): 465 mL/min
Tmax ([4]; 0.6 mg): 1.25 h
Vd/F ([4]; 0.6 mg): 1410 L
AUC(0-t) ([4]; 0.6 mg, AUCT GEOMETRIC LSMEANS, Treatment-1: colchicine 0.6 mg alone, cimetidine study): 19.3 ng·h/mL
AUC(0-t) ([4]; 0.6 mg, AUCT, Treatment-1 (day 1): colchicine 0.6 mg alone, fasted, cimetidine study, mean): 20.4 ng·h/mL
AUC(0-inf) ([4]; 0.6 mg, AUC∞ GEOMETRIC LSMEANS, Treatment-1: colchicine 0.6 mg alone, cimetidine study): 22.6 ng·h/mL
AUC(0-inf) ([4]; 0.6 mg, AUC∞, Treatment-1 (day 1): colchicine 0.6 mg alone, fasted, cimetidine study, mean): 24 ng·h/mL
Cmax ([4]; 0.6 mg, Cmax GEOMETRIC LSMEANS, Treatment-1: colchicine 0.6 mg alone, cimetidine study): 2.78 ng/mL
Cmax ([4]; 0.6 mg, Cmax, Treatment-1 (day 1): colchicine 0.6 mg alone, fasted, cimetidine study, mean): 3 ng/mL
AUC(0-t) ([4]; AUCT GEOMETRIC LSMEANS, Treatment-2: colchicine 0.6 mg + cimetidine): 16.7 ng·h/mL
AUC(0-inf) ([4]; AUC∞ GEOMETRIC LSMEANS, Treatment-2: colchicine 0.6 mg + cimetidine): 19.3 ng·h/mL
AUC(0-inf) ([4]; AUC∞, Treatment-2 (day 9): colchicine 0.6 mg + cimetidine 800 mg after double dose day 4, once daily days 5-8, fasted, mean): 21 ng·h/mL
Cmax ([4]; Cmax GEOMETRIC LSMEANS, Treatment-2: colchicine 0.6 mg + cimetidine): 1.88 ng/mL
Cmax ([4]; Cmax, Treatment-2 (day 9): colchicine 0.6 mg + cimetidine 800 mg after double dose day 4, once daily days 5-8, fasted, mean): 2.11 ng/mL
Total number of adverse events after Treatment-2 ([5]; colchicine + fluconazole): 3
Number of adverse events requiring medication after Treatment-1 ([5]; fluconazole study): None
Number of serious adverse events or deaths ([5]; fluconazole study): None
Total number of adverse events after Treatment-1 ([5]; fluconazole study): 7
Number of subjects experiencing adverse events after Treatment-2 [5, 12]: 3
Percent of subjects experiencing adverse events after Treatment-2 [5, 12]: 25.0%
Number of subjects experiencing adverse events after Treatment-1 [5, 13]: 3
Percent of subjects experiencing adverse events after Treatment-1 [5, 13]: 25.0%
